We go through 2 compounds from patent US20020183377A1 (priority 1999, published 2002).

In one data set the test system is alopecia in men. As to conditions: cited from earlier work.
The next data set concerns postmenopausal women. As to conditions: unpublished data; cited from earlier work.
In data set [1] the test system is hair follicles of the cashmere goat. As to conditions: cited from earlier work.
A further data set concerns hair follicle of goats. As to conditions: goats treated over 14 days, vs untreated goats; cited from earlier work.
For data set [2], the system named is female patients having diffuse or androgenetic, non-epulotic alopecia. Nature of the data set: Hair shaft measurements (diameter, breaking force, breaking distance) in the same study. Particulars: for power of resistance of hair: frontal hair. Format: in vivo, human. From the text:
The treatment period was 6 months. […] From the hair samples obtained for the trichogram, frontally and occipitally at least 10 hairs in each case were used for the hair shaft measurements. These samples were investigated before the beginning of the preparation application and after 3 and 6 months' treatment. For the measurement of the diameter and of the mechanical properties of the hair, 5 hairs from the frontal and occipital taking region of the trichograms were in each case used. For the measurement of the force which had to be used in order to break the hair, the hairs were first stretched, by means of a computer-controlled measuring and control unit at a constant force (Newton), to breaking point. In a manner analagous to the determination of the breaking force, it was possible to determine the stretching distance up to the breaking point by means of the measuring unit. The stretching distance was measured in mm.

A short description of data set [3]: Toxicity and side effects of melatonin in humans (oral, topical). Particulars: topical application in a nanocolloid preparation and alcoholic solutions, over 60 subjects. Format: in vivo, human. From the text: Although the mechanisms of the action of melatonin are still not comprehensively clarified in detail, melatonin appears to control the adaptation of the organism to environmental stimuli, in particular light and temperature.

The test system of data set [4] is female patients having diffuse or androgenetic, non-epulotic alopecia. Nature of the data set: Patient questionnaire (success of therapy, side effects). Format: in vivo, human. The method, then: Undesirable pharmaceutical side effects were determined by means of a patient questionnaire. At the end of the study, an additional termination questionnaire was filled in by the patients, in which they could express their views on the success of the therapy, on the chronological occurrence of side effects and on the administration form of the preparation.

Data set [5] shares this test system. Description: Trichograms (anagenic, telogenic, dystrophic hair rates) in randomized placebo-controlled double-blind study. The data set is classed as in vivo, human. Particulars: for telogenic rate, frontal trichogram / anagenic rate, frontal trichogram / anagenic rate, occipital trichogram / telogenic rate, occipital trichogram: all patients. The method, then:
The trial was carried out as a randomized, placebo-controlled double-blind study on 40 female patients having diffuse or androgenetic, non-epulotic alopecia, who, after clarification, declared themselves willing to participate in the investigation. […] The treatment period was 6 months. […] 40 women of 20 to 70 years of age with healthy skin and good general health and having androgenetic or diffuse alopecia were tested. Care was taken that none of the women were pregnant or lactating, there was no dermatological local therapy on the scalp and no epulotic alopecia was present. Furthermore, no hair-cosmetic measures were carried out during the study. […] For the investigation of the […] telogenic rates, trichograms were prepared. In this procedure, 5 days in each case after the last hair wash 30 to 50 hairs were obtained frontally approximately 2 cm from the forehead/hair boundary and laterally from the sagittal line in a standardized manner by epilation using a special […]. A 2nd epilation was taken occipitally 2 cm laterally of the protuberantia occipitalis. The trichograms were carried out before the beginning of the study, and after 3 and 6 months' treatment. The hair roots obtained were mounted on slides, analogously counted by means of a light microscope at 20-times magnification and the percentage ratios of the […], telogenic and dystrophic hairs were calculated. All the individual data from the trichogram investigations, the hair shaft measurements and the melatonin measurements were recorded in Microsoft Excel and mean values and standard deviations were calculated. The statistical analysis of the measured values at the various points in time in the two treatment groups was carried out by the SPSS statistics program.

The mark [6] stands for this setting: patients treated with melatonin.
The mark [7] stands for this setting: drug group, under topical treatment.
Setting [8] is: drug group, end of 6-month study.
Where [9] appears, read: drug group n=14, starting value.

Each structure is given as a SMILES string. Values joined by “and” are separate entries in the source; they are usually repeats but may differ in a detail not shown here. Equal values may be shown once. Some results are limits rather than exact numbers.

Turning to `CC(C)(C)NC(=O)[C@H]1CC[C@H]2[C@@H]3CC[C@H]4NC(=O)C=C[C@]4(C)[C@H]3CC[C@]12C` [finasteride], in the data set on alopecia in men, the “cases with slight to marked improvement in the hair density” value was 66% and the “cases with stopping of the hair loss” value was 80%. For the same compound, in the data set with postmenopausal women, the “efficacy compared with placebo” value is listed as “did not show any superior efficacy compared with placebo”.
As to `COc1ccc2[nH]cc(CCNC(C)=O)c2c1` [melatonin, N-acetyl-5-methoxytryptamine], the “melatonin concentration giving greater growth of the hair shafts than lower dose and control” value in data set [1] (24 hour interval) was not below 150 mg/mL. The “melatonin concentration with best growth rates and maximal total growth” value in data set [1] (after 120 hours) is 300 ng/L. For the same compound, the “effect on hair follicles (histology of skin biopsies)” value with hair follicle of goats is “induction of hair growth by changeover of the hair follicle from the telogenic phase to the proanagenic phase”. The “patients with enlargement of the hair diameter, hair taken frontally” value in data set [2] (drug group, diagnosis androgenetic alopecia) was 67%. Also, the “power of resistance of hair” value in data set [2] (after 6 months' melatonin treatment) turned out to be 0.61 N; in data set [2] (melatonin treatment, before treatment), 0.56 N. Besides, in [2] (occipital hair, diffuse alopecia, melatonin), the “patients with improvements of occipital hair parameters, group having diffuse alopecia” value was 86%. Also, the “patients with enlargement of the hair diameter, hair taken occipitally” value in data set [2] (setting [6]) worked out at 55%. In addition, the “patients with increase in the stretching force, hair taken occipitally” value in data set [2] (setting [6]) is 70%. The “accumulation in the melatonin serum level” value (6 months' topical treatment) is recorded as “did not occur”. The “melatonin plasma level versus physiological night level (not exceeded)” value under setting [7] is not above 250 pg/ml. Further, the “melatonin plasma level, individual peak values” under setting [7] came out at 180 pg/mL. For the same compound, the “local or systemic side effects” value in [3] is on record as “no local or systemic side effects”. Further, the “patients in whom the hair loss had stopped” value in data set [4] (setting [8]) turned out to be 23%. The “patients in whom the hair loss had worsened” value in data set [4] (setting [8]) came out at 8%. Besides, the “patients stating that the hair loss had improved” value in data set [4] (setting [8]) is given as 69%. Besides, in data set [4] (topical application to the scalp, 6 months), the “occurrence of tiredness compared with the placebo group” value is recorded as “no increased occurrence of tiredness”. In addition, the “anagenic rate, occipital trichogram, androgenetic alopecia” value in [5] (drug group n=6, after treatment) is 87.8%; in data set [5] (drug group n=6, starting value), 73.6%. Also, the “telogenic rate, occipital trichogram, androgenetic alopecia” value in [5] (drug group n=6, month 3) amounted to 18.3%; in [5] (drug group n=6, month 6, p≦0.035 vs starting result) it was 10.8%; in data set [5] (drug group n=6, starting value) it was 26.5%. The “telogenic rate, occipital trichogram, diffuse alopecia” value came out at 13.2% in data set [5] (drug group n=14, after treatment) and 21.6% in data set [5] (setting [9]). Also, the “anagenic rate, occipital trichogram, diffuse alopecia” value in [5] (drug group n=14, after treatment, p=0,02 vs placebo for increase) is on record as 83.7%; in data set [5] (setting [9]), 77.4%. Further, the “telogenic rate, frontal trichogram” value in [5] (drug group, after 3 months) was found to be 16.8%; in data set [5] (drug group, after 6 months), 15.9%; in data set [5] (drug group, starting value), 18.9%. The “anagenic rate, frontal trichogram” value in data set [5] (drug group, after treatment with 0.1% melatonin spray (time not given; 6-month study)) came to 82.6%; in data set [5] (drug group, starting value before therapy), 80.4%. In addition, the “anagenic rate, occipital trichogram” value in data set [5] (drug group, month 3) came to 78.8%; in [5] (drug group, month 6, p≦0.021 vs starting result), 85%; in data set [5] (drug group, starting value), 76.3%. The “telogenic rate, occipital trichogram” value in data set [5] (drug group, month 3) is 18.1%; in data set [5] (drug group, month 6, p≦0.048 vs month 3, p≦0.005 over 6 months), 12.5%; in data set [5] (drug group, starting value (month 1)), 23.03% and 23%. Further, the “differences in frontal anagenic and telogenic rates after 3 and 6 months compared with starting values” in data set [5] (drug group, frontal) is on record as “not significant”. In addition, the “harmful actions of the preparation on the physiological hair root (dystrophic hair rate)” value in [5] (dystrophic hair always in the normal range) is on record as “no harmful actions”.
